Measurements reported in patent US11999727B2 (Tango Therapeutics, Inc., priority 2020, dated 2024).
pIC50: −log10 of the molar value. Where two headings read alike, the source gives them in different places.

How the values were obtained:
[1] = system: HAP1 MTAP-deleted cell line; assay: SDMA in-cell western assay, HAP1 MTAP-deleted; type: cell-based; settings: for pIC50: Homo sapiens, HAP1, SDMA in-cell western, HAP1 MTAP-deleted, read-out: HAP 1 MTAP deleted IC50; for MTAP intact/deleted ratio: IC50 ratio HAP1 MTAP-intact / HAP1 MTAP-deleted, SDMA in-cell western
In short: (§1)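 Compounds were tested in HAP1 cells differing only in MTAP status (endogenous expression versus null). Cellular SDMA levels were then measured by in-cell western, giving an IC50 in each background.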

[2] = biological target: T1, PRMT5 (Homo sapiens, UniProt O14744); assay: PRMT5 biochemical IC50 assay with no cofactor; settings: PRMT5, no cofactor; read-out: No Cofactor/ rel IC50
T1 construct: purchased Viva (custom protein)
T1 sequence (O14744 whole entry): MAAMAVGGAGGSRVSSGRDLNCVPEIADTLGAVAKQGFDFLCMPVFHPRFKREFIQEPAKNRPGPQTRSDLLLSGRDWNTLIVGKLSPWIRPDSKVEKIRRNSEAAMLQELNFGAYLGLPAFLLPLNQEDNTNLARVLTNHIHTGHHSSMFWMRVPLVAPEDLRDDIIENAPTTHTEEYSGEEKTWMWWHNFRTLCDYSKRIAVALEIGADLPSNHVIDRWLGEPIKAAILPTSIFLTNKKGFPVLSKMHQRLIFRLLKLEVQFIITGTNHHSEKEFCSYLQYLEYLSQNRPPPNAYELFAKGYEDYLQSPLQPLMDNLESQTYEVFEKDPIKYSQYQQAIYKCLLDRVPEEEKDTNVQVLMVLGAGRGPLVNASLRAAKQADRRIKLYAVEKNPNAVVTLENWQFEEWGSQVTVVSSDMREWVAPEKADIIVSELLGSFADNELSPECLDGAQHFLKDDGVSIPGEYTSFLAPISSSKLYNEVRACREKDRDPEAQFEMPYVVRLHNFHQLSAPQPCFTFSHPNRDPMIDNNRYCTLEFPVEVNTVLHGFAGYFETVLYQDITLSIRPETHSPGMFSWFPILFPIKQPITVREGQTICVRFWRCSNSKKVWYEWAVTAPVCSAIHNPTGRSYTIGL
T1 sequence (Q9BQA1 whole entry partner): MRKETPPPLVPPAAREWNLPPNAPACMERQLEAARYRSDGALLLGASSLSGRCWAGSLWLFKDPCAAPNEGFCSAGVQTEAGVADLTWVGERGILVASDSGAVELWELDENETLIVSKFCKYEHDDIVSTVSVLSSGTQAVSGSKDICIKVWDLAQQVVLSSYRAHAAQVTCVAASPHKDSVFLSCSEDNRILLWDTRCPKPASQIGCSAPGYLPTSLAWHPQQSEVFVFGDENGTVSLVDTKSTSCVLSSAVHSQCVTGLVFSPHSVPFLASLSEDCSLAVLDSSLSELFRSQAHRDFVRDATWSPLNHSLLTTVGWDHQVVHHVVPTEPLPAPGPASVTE
Description: Table 1 indicates IC50 values (μM) against PRMT5 for exemplary compounds in the presence of SAM as cofactor, with no cofactor, and with MTA as cofactor, respectively (columns 4-6). […] Ki values can be calculated from the IC50 values as described in the Examples section. As detailed in the Examples section, for the assay performed in the presence of SAM, IC50=Ki×1.5 (Ki=IC50/1.5).

[3] = biological target: T1, PRMT5; assay: PRMT5 biochemical IC50 assay with SAM as cofactor; settings: PRMT5, SAM as cofactor; read-out: SAM IC50
[4] = system: HAP1 MTAP-intact cell line; assay: SDMA in-cell western assay, HAP1 MTAP-intact; type: cell-based; settings: HAP1 MTAP-intact, read-out: MTAP HAP1 intact IC50
In short: as §1

[5] = system: HAP1 MTAP-deleted cell line; assay: Viability assay, MTAP-deleted cell line; type: cell-based; settings: Homo sapiens, read-out: HAP1 MTAP deleted viability
Description: Table 1 additionally indicates IC50 values in a viability assay for the MTAP-deleted cell line (column 10), indicating the effect of treatment with compound on cell survival.

[6] = biological target: T1, PRMT5; assay: PRMT5 biochemical IC50 assay with MTA as cofactor; settings: PRMT5, MTA as cofactor; read-out: MTA IC50
[7] = Homo sapiens, HAP1, SDMA in-cell western
[8] = HAP1, viability, HAP1 MTAP-deleted cell line
[9] = HAP1, viability assay, MTAP-deleted cell line

Row | SMILES | pIC50 [1] | MTAP intact/deleted ratio [1] | pIC50 [2] | pIC50 [3] | pIC50 [4, 7] | pIC50 [5, 8] | pIC50 [6] | pIC50 ([4]; SDMA in-cell western) | pIC50 [5, 9]
1 | Cc1cc(NC(=O)C(=O)N2C[C@@H](C)CC[C@@H]2c2cc3cn[nH]c3s2)cnc1N (single isomer, unassigned) [Compound 1392] | > 7.00 | A (an IC50 ratio greater than or equal to 10 fold) | 6.30 to 7.30 | 6.30 to 7.30 | 6.00 to 7.00 | > 6.00 | > 7.30 |  | 
2 | CCc1cc(NC(=O)C(=O)N2C[C@@H](C)CC[C@@H]2c2ccc3sc([C@H]4CCN(C)C(C)(C)C4)nc3c2)cnc1N (single isomer, unassigned) [Compound 1397] | > 7.00 | A (an IC50 ratio greater than or equal to 10 fold) | > 7.30 | 6.30 to 7.30 |  | > 6.00 | > 7.30 | > 7.00 | 
3 | C[C@@H]1CC[C@@H](c2ccc3cn(C)nc3c2)N(C(=O)C(=O)Nc2cnc(N)c(C3CC3)c2)C1 (single isomer, unassigned) [Compound 1403] | > 7.00 | A (an IC50 ratio greater than or equal to 10 fold) | > 7.30 | 6.30 to 7.30 | 6.00 to 7.00 | > 6.00 | > 7.30 |  | 
4 | CC(=O)N1CCC(c2cccc(C3CCCCN3C(=O)C(=O)Nc3cncc(C)c3)c2)CC1 (centres unmarked) [Compound 7, 2-(2-(3-(1-acetylpiperidin-4-yl)phenyl)piperidin-1-yl)-N-(5-methylpyridin-3-yl)-2-oxoacetamide] | < 6.00 | C (an IC50 ratio of less than 3 fold) | < 6.30 | < 6.30 | < 6.00 |  | 6.30 to 7.30 |  | < 5.00
5 | Cc1cc(NC(=O)C(=O)N2CCCCC2c2cccs2)cnc1N (centres unmarked) [Compound 9, N-(6-Amino-5-methylpyridin-3-yl)-2-oxo-2-(2-(thiophen-2-yl)piperidin-1-yl)acetamide] | 6.00 to 7.00 | A (an IC50 ratio greater than or equal to 10 fold) | 6.30 to 7.30 | 6.30 to 7.30 | < 6.00 |  | > 7.30 |  | < 5.00
6 | Cc1cncc(NC(=O)C(=O)N2CCCCC2c2cccc(N(C)C)c2)c1 (centres unmarked) [Compound 15, 2-(2-(3-(dimethylamino)phenyl)piperidin-1-yl)-N-(5-methylpyridin-3-yl)-2-oxoacetamide] | < 6.00 | C (an IC50 ratio of less than 3 fold) | < 6.30 | < 6.30 | < 6.00 |  | 6.30 to 7.30 |  | < 5.00
7 | Cn1nccc1C1CCCCN1C(=O)C(=O)Nc1cncc(C(N)=O)c1 (centres unmarked) [Compound 26, 5-[[2-[2-(2-methylpyrazol-3-yl)-1-piperidyl]-2-oxo-acetyl]amino]pyridine-3-carboxamide] | 6.00 to 7.00 | A (an IC50 ratio greater than or equal to 10 fold) | < 6.30 | 6.30 to 7.30 | < 6.00 |  | 6.30 to 7.30 |  | < 5.00
8 | NC(=O)c1cncc(NC(=O)C(=O)N2CCCCC2c2ccccc2)c1 (centres unmarked) [Compound 29, 5-[[2-oxo-2-(2-phenyl-1-piperidyl)acetyl]amino]pyridine-3-carboxamide] | 6.00 to 7.00 | A (an IC50 ratio greater than or equal to 10 fold) | < 6.30 | 6.30 to 7.30 | < 6.00 |  | 6.30 to 7.30 |  | < 5.00
9 | Cc1cc(NC(=O)C(=O)N2CCCCC2C2CCCCC2)cnc1N (centres unmarked) [Compound 30, N-(6-amino-5-methyl-3-pyridyl)-2-[2-cyclohexyl-1-piperidyl]-2-oxo-acetamide] | 6.00 to 7.00 | A (an IC50 ratio greater than or equal to 10 fold) | 6.30 to 7.30 | 6.30 to 7.30 | < 6.00 |  | 6.30 to 7.30 |  | < 5.00
10 | Cc1cc(NC(=O)C(=O)N2CCCCC2c2cccnc2)cnc1N (centres unmarked) [Compound 38, N-(6-Amino-5-methyl-3-pyridyl)-2-oxo-2-[2-(3-pyridyl)-1-piperidyl]acetamide] | < 6.00 | B (an IC50 ratio greater than or equal to 3 fold but lower than 10 fold) | 6.30 to 7.30 | 6.30 to 7.30 | < 6.00 |  | 6.30 to 7.30 |  | < 5.00
11 | CC1(C)CCC(c2ccccc2)N(C(=O)C(=O)Nc2cncc(C(N)=O)c2)C1 (centres unmarked) [Compound 45, 5-(2-(5,5-dimethyl-2-phenylpiperidin-1-yl)-2-oxoacetamido)nicotinamide] | 6.00 to 7.00 | A (an IC50 ratio greater than or equal to 10 fold) | < 6.30 | < 6.30 | < 6.00 |  | 6.30 to 7.30 |  | < 5.00
12 | Cc1csc(C2CCCCN2C(=O)C(=O)Nc2cnc(N)c(C)c2)n1 (centres unmarked) [Compound 49, N-(6-Amino-5-methyl-3-pyridyl)-2-[2-(4-methylthiazol-2-yl)-1-piperidyl]-2-oxo-acetamide] | 6.00 to 7.00 | A (an IC50 ratio greater than or equal to 10 fold) | 6.30 to 7.30 | 6.30 to 7.30 | < 6.00 |  | > 7.30 |  | < 5.00
13 | Cc1cc(NC(=O)C(=O)N2CCCCC2C2CCCC2)cnc1N (centres unmarked) [Compound 61, N-(6-amino-5-methyl-3-pyridyl)-2-(2-cyclopentyl-1-piperidyl)-2-oxo-acetamide] | > 7.00 | A (an IC50 ratio greater than or equal to 10 fold) | 6.30 to 7.30 | < 6.30 | < 6.00 |  | 6.30 to 7.30 |  | 5.00 to 6.00
14 | CC(C)C1CCCCN1C(=O)C(=O)Nc1cncc(C(N)=O)c1 (centres unmarked) [Compound 100, 5-[[2-(2-isopropyl-1-piperidyl)-2-oxo-acetyl]amino]pyridine-3-carboxamide] | 6.00 to 7.00 | A (an IC50 ratio greater than or equal to 10 fold) | < 6.30 | 6.30 to 7.30 | < 6.00 |  | 6.30 to 7.30 |  | < 5.00
15 | NC(=O)c1cncc(NC(=O)C(=O)N2CCCCC2C2CCCCC2)c1 (centres unmarked) [Compound 101, 5-(2-(2-cyclohexylpiperidin-1-yl)-2-oxoacetamido)nicotinamide] | > 7.00 | A (an IC50 ratio greater than or equal to 10 fold) | 6.30 to 7.30 | 6.30 to 7.30 | < 6.00 |  | > 7.30 |  | < 5.00
16 | NC(=O)c1cncc(NC(=O)C(=O)N2CCCCC2C2CCC2)c1 (centres unmarked) [Compound 103, 5-[[2-(2-cyclobutyl-1-piperidyl)-2-oxo-acetyl]amino]pyridine-3-carboxamide] | 6.00 to 7.00 | A (an IC50 ratio greater than or equal to 10 fold) | 6.30 to 7.30 | 6.30 to 7.30 | < 6.00 |  | > 7.30 |  | < 5.00
17 | Cc1cc(NC(=O)C(=O)N2CCCCC2c2cccc3c2CC(=O)N3)cnc1N (centres unmarked) [Compound 116, N-(6-Amino-5-methyl-3-pyridyl)-2-oxo-2-[2-(2-oxoindolin-4-yl)-1-piperidyl]acetamide] | 6.00 to 7.00 | A (an IC50 ratio greater than or equal to 10 fold) | < 6.30 | 6.30 to 7.30 | < 6.00 |  | 6.30 to 7.30 |  | < 5.00
18 | NC(=O)c1cncc(NC(=O)C(=O)N2CCCCC2c2ccccc2)c1N (centres unmarked) [Compound 119, 4-amino-5-[[2-oxo-2-(2-phenyl-1-piperidyl)acetyl]amino]pyridine-3-carboxamide] | 6.00 to 7.00 | A (an IC50 ratio greater than or equal to 10 fold) | 6.30 to 7.30 | 6.30 to 7.30 | < 6.00 |  | 6.30 to 7.30 |  | < 5.00
19 | NC(=O)c1cncc(NC(=O)C(=O)N2CCCCC2c2cccs2)c1 (centres unmarked) [Compound 120, 5-[[2-Oxo-2-[2-(2-thienyl)-1-piperidyl]acetyl]amino]pyridine-3-carboxamide] | 6.00 to 7.00 | A (an IC50 ratio greater than or equal to 10 fold) | 6.30 to 7.30 | 6.30 to 7.30 | < 6.00 |  | > 7.30 |  | < 5.00
20 | Cc1cc(NC(=O)C(=O)N2CCCCC2c2csc3ccccc23)cnc1N (centres unmarked) [Compound 123, N-(6-Amino-5-methyl-3-pyridyl)-2-[2-(benzothiophen-3-yl)-1-piperidyl]-2-oxo-acetamide] | 6.00 to 7.00 | A (an IC50 ratio greater than or equal to 10 fold) | 6.30 to 7.30 | 6.30 to 7.30 | < 6.00 |  | > 7.30 |  | 5.00 to 6.00
